Consider four compounds from ChEMBL document CHEMBL5120819, “Tanzawaic Acids from a Deep-Sea Derived Penicillium Species” (J Nat Prod, 2022).

Series [1] is described as follows: Cytotoxicity against human A549 cells assessed as reduction in cell viability at 13 uM by SRB assay relative to control. In kind it is toxicity, cell-based. As to conditions: read-out: GI.
In series [2] the test system is Escherichia coli. The experiment in a line: […] activity against Escherichia coli ATCC 35218 assessed as reduction in microbial growth after 12 to 18 hrs by microbroth dilution method. In kind it is functional. The conditions noted are these: time 12-18 hrs. (In general: Broth dilution looks for growth in wells or tubes with falling amounts of substance.)
Series [3] relates to Candida albicans. Kind of series: Antifungal activity against Candida albicans ATCC 10231 assessed as reduction in microbial growth after 12 to 18 hrs by microbroth dilution method. The class given is functional. As to conditions: time 12-18 hrs.

For the compound `COc1ccc([C@@H]2SS[C@@]34C[C@]5(O)[C@H](OC(=O)/C=C/C=C/[C@@H]6[C@H]7[C@H](C)C[C@H](C)C[C@@H]7C=C[C@@H]6C)C=C[C@@H](O)[C@@H]5ON3C(=O)[C@@H]2N(C)C4=O)c(O)c1OC`, in series [1], the inhibition at 13 µM is 51.7%.
On to `C[C@H]1C[C@@H](C)[C@@H]2[C@@H](/C=C/C=C/C(=O)O)[C@@H](C)C=C[C@H]2C1`, for which the minimum inhibitory concentration (MIC) (as a rule, the smallest concentration in the dilution series that meets the test's criterion for growth inhibition) in series [2] was found to be 10 µg/mL; in series [3], 20 µg/mL.
For the compound `COc1ccc([C@@H]2SS[C@@]34C[C@]5(O)[C@H](OC(=O)/C=C/C=C/c6c(C)ccc7c6[C@H](C)C[C@H](C)C7)C=C[C@@H](O)[C@@H]5ON3C(=O)[C@@H]2N(C)C4=O)c(O)c1OC`, in series [1], the inhibition at 13 µM was determined as 90.7%.
On to `COc1ccc([C@@H]2SS[C@@]34C[C@]5(O)[C@H](O)C=C[C@@H](O)[C@@H]5ON3C(=O)[C@@H]2N(C)C4=O)c(O)c1OC`, for which the MIC in series [3] turned out to be 30 µg/mL.
